Test results reported in ChEMBL document CHEMBL4190198, “Celastrofurans A-G: Dihydro-β-agarofurans from the Australian Rainforest Vine Celastrus subspicata and Their Inhibitory Effect on Leucine Transport in Prostate Cancer Cells” (J Nat Prod, 2017).

experiment: Inhibition of L-type amino acid transporter in human LNCAP cells assessed as reduction in [3H]-L-Leucine uptake after 15 mins by liquid scintillation counting method; type: cell-based

Row | Compound | IC50 [µM]
1 | CC(=O)O[C@@H]1C[C@@H](C)[C@@]23C[C@@H]([C@@H](O)[C@H](OC(=O)c4ccccc4)[C@]2(C)[C@H]1OC(=O)c1ccoc1)C(C)(C)O3 | 98.9
2 | CC(=O)O[C@@H]1[C@@H]2C[C@]3(OC2(C)C)[C@H](C)C[C@@H](OC(C)=O)[C@H](OC(=O)c2ccoc2)[C@@]3(C)[C@H]1OC(=O)c1ccccc1 | 15.2
3 | CC(=O)O[C@@H]1C[C@@H](C)[C@@]23C[C@@H](C(=O)[C@H](OC(=O)c4ccccc4)[C@]2(C)[C@H]1OC(=O)c1ccoc1)C(C)(C)O3 | 13.4
4 | CC(=O)O[C@@H]1C[C@@H](C)[C@@]23C[C@@H](C[C@H](OC(=O)c4ccoc4)[C@]2(C)[C@H]1OC(=O)c1ccoc1)C(C)(C)O3 | 75.3

Second part, the compound after the results:

Row | IC50 [µM] | Compound
5 | 34.5 | CC(=O)O[C@@H]1C[C@@H](C)[C@@]23C[C@@H](C[C@H](OC(=O)c4ccccc4)[C@]2(C)[C@H]1OC(=O)c1ccoc1)C(C)(C)O3
6 | 19.7 | C[C@@H]1CC[C@H](OC(=O)c2ccoc2)[C@@]2(C)[C@@H](OC(=O)c3ccccc3)C[C@@H]3C[C@]12OC3(C)C
7 | 7 | CC(=O)O[C@@H]1C[C@@H](C)[C@@]23C[C@@H](C[C@H](OC(=O)c4ccccc4)[C@]2(C)[C@H]1OC(=O)c1ccccc1)C(C)(C)O3
8 | 27.6 | C[C@@H]1CC[C@H](OC(=O)c2ccccc2)[C@@]2(C)[C@@H](OC(=O)c3ccccc3)C[C@@H]3C[C@]12OC3(C)C
9 | 82.3 | CC(=O)O[C@@H]1C[C@@H](C)[C@@]23C[C@@H]([C@@H](O)[C@H](OC(=O)c4ccccc4)[C@]2(C)[C@H]1OC(=O)c1ccccc1)C(C)(C)O3
